Assays:
CYP2B6 = test: CYP induction (mRNA, qPCR) in human hepatocytes; settings: for CYP2B6 induction, % of PC: PC phenobarbital 1 mM
Excerpt: After culture and complete induction, total mRNA was extracted by TRNzol RNA Extraction Kit (purchased from Tiangen Biochemical Technology Co., Ltd., Beijing). The RNA was reverse transcribed into cDNA according to the instructions of the Transcriptor First Strand cDNA Synthesis Kit (purchased from Roche, Switzerland). Using reverse transcribed cDNA as a template, amplifying the internal reference genes of β-Actin of the sample and target genes of CYP1A2, CYP2B6, and CYP3A4 respectively to compare the expression differences.

[1] = design: method as in Gu et al., 2024; settings: rats, 0-24 h; ref Gu et al., 2024; cited from earlier work
CYP3A = test: HLM phenotyping assay with CYP3A inhibitor ketoconazole; type: in vitro ADME, human; settings: 1 μM, HLM 0.5 mg/mL, NADPH, 90 min, with 1 µM ketoconazole
Description: (§1) Deg-AZM (1 μM) was treated with pooled HLM (0.5 mg/mL) and NADPH (1 mM) for 90 min with or without seven specific inhibitors (10 µM furafylline for CYP1A2, 10 µM ticlopidine for CYP2B6, 5 µM montelukast for CYP2C8, 10 µM sulfaphenazole for CYP2C9, 10 µM ticlopidine for CYP2C19, 2.5 µM quinidine for CYP2D6, 1 µM ketoconazole for CYP3A). Isoform-selective probe substrates, 10 µM phenacetin for CYP1A2, 20 µM bupropion for CYP2B6, 2 µM amodiaquine for CYP2C8, 5 µM diclofenac for CYP2C9, 20 µM S-mephenytoin for CYP2C19, 5 µM bufuralol for CYP2D6, 2 µM midazolam for CYP3A4, were used as positive controls.

Caco-2 cell monolayer = test: Bidirectional transport in Caco-2 cell monolayer; type: in vitro ADME, human; settings: 2, 10 and 50 μM, intake direction
Description: (§2) The human colon adenocarcinoma Caco-2 cell line was provided by Institute of Basic Medicine, Chinese Academy of Medical Sciences (Beijing, China). Caco-2 cells were cultured in a high sugar DMEM medium containing 10% (v/v) fetal bovine serum at 37°C and 5% CO2 incubator. Caco-2 cells (2.5 ×10^5/mL) was inoculated into Transwell polycarbonate membrane 12 well plate. The culture medium was changed every 2 days for the first 14 days, and then every day. After 21 consecutive days, fully differentiated cell monolayers were obtained for drug transport assays.
(§3) Transepithelial electrical resistance (TEER) was used to indicate monolayer integrity. The electrode of the Millcell ERS-2 voltammeter was placed in HBSS solution for 20 min to pre-balance. At the same time, the culture medium was removed from the Transwell culture plate, 0.5 mL of pre-heated HBSS solution was added into the Apical (AP) of transwell, 1.5 mL of pre-heated HBSS solution was added into the Basolateral (BL) of transwell. After that, the transwell was balanced at 37°C for 20 min and then replaced the HBSS solution with the pre-heated HBSS solution, the TEER value was measured finally. Caco-2 cell monolayers with TEER >350 Ω cm^2 which means that the cells have formed a tight monolayer, were used for the experiment. The TEER value was calculated according to the following formula: TEER=TEERT ‐ TEERc×A where TEERT represented the TEER value (Ω) of the measured Transwell chamber with Caco-2 cells, TEERC was the TEER value (Ω) of the transwell chamber in the control group, and A was the membrane area of the transwell cavity (1.12 cm^2 in this experiment).
(§4) In order to evaluate the usability of the Transwell model research, [^3H] Propranolol (0.5 μCi/mL) and [^14C] PEG4000 (1 μCi/mL) served as high-permeability and impermeability controls to verify the uptake direction on Caco-2 cell monolayer, respectively. Rhodamine 123 was used as a positive control for efflux mechanism in bidirectional transport assay on Caco-2 cell monolayer.
(§5) The transmembrane permeability of Deg-AZM (2, 10 or 50 µM) and the potential to inhibit P-gp by Deg-AZM (2, 10 or 50 µM) were evaluated using Caco-2 cell monolayer both apical-to-basolateral (A-B) and basolateral-to-apical (B-A) directions at 37°C for 1 h, the experiments were conducted using quinidine (50 μM) as the inhibitor for P-gp. At the end of incubation, receiver and donor samples were both diluted by assay buffer and analyzed by LC-MS/MS.

[2] = Bidirectional transport in Caco-2 cell monolayer; type: in vitro ADME, human; settings: human, Caco-2, without quinidine
Description: as §2, §3, §4, §5

CYP2C9 = biological target: T1, CYP2C9 (Homo sapiens, UniProt P11712); test: HLM phenotyping assay with CYP2C9 inhibitor sulfaphenazole; type: in vitro ADME; settings: 1 μM, HLM 0.5 mg/mL, NADPH, 90 min, with 10 µM sulfaphenazole
T1 construct: from tissue; host or cells: human liver microsomes
Description: as §1

T1 sequence (P11712 whole entry): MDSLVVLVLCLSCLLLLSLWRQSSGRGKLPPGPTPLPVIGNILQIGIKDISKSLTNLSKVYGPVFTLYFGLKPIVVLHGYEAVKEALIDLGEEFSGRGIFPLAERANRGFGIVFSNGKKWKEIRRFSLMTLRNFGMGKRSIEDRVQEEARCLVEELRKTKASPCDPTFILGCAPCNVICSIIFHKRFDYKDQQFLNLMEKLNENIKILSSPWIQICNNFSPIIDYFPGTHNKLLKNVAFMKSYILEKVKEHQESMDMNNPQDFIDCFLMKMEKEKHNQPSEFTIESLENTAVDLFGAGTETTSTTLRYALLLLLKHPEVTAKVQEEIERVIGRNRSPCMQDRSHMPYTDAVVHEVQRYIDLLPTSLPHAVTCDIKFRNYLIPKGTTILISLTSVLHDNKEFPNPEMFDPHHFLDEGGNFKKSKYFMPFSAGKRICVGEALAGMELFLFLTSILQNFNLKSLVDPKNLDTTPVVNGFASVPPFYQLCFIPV

## CCC1OC(=O)C(C)C(O)C(C)C(O)C(C)(O)CC(C)CN(C)C(C)C(O)C1(C)O (stereo not drawn) [Deg-AZM, Deglycosylated azithromycin]
CYP2B6; 5 μM, batch HUB
  CYP2B6 induction, % of PC: −0.466%
CYP2B6; 5 μM, batch LHuf 17905B
  CYP2B6 induction, % of PC: 6.61%
CYP2B6; 5 μM, batch MWB
  CYP2B6 induction, % of PC: 4.39%
CYP2B6; 5 μM, hepatocyte batch HUB
  CYP2B6 mRNA induction, times of control group: 0.942
CYP2B6; 5 μM, hepatocyte batch LHuf 17905B
  CYP2B6 mRNA induction, times of control group: 1.61
CYP2B6; 5 μM, hepatocyte batch MWB
  CYP2B6 mRNA induction, times of control group: 1.60
CYP2B6; 25 μM, batch HUB
  CYP2B6 induction, % of PC: 0.0278%
CYP2B6; 25 μM, batch LHuf 17905B
  CYP2B6 induction, % of PC: 5.00%
CYP2B6; 25 μM, batch MWB
  CYP2B6 induction, % of PC: 6.09%
CYP2B6; 25 μM, hepatocyte batch HUB
  CYP2B6 mRNA induction, times of control group: 1.00
CYP2B6; 25 μM, hepatocyte batch LHuf 17905B
  CYP2B6 mRNA induction, times of control group: 1.46
CYP2B6; 25 μM, hepatocyte batch MWB
  CYP2B6 mRNA induction, times of control group: 1.83
CYP2B6; 100 μM, batch HUB
  CYP2B6 induction, % of PC: 2.97%
CYP2B6; 100 μM, batch LHuf 17905B
  CYP2B6 induction, % of PC: 19.8%
CYP2B6; 100 μM, batch MWB
  CYP2B6 induction, % of PC: 24.3%
CYP2B6; 100 μM, hepatocyte batch HUB
  CYP2B6 mRNA induction, times of control group: 1.37
CYP2B6; 100 μM, hepatocyte batch LHuf 17905B
  CYP2B6 mRNA induction, times of control group: 2.84
CYP2B6; 100 μM, hepatocyte batch MWB
  CYP2B6 mRNA induction, times of control group: 4.33
CYP2B6; 5, 25, and 100 µM, three batches of human hepatocytes
  Induction effect on CYP2B6 (conclusion): has an induction effect
[1]
  Amount excreted in original form from feces: 1.81 % of the administered dose
  Amount excreted in original form from urine: 14.9 % of the administered dose
CYP3A
  Deg-AZM remaining: 93.4%
Caco-2 cell monolayer
  Permeability classification: low permeability drug with poor transmembrane ability
[2]; 2 μM, 37°C 1 h, n = 3
  Papp A→B at 1 h, 2 μM: 0.326 ± 0.0481 ×10⁻⁶ cm/s
  Papp B→A at 1 h, 2 μM: 5.27 ± 0.771 ×10⁻⁶ cm/s
[2]; 2 μM, read-out: ER
  efflux ratio at 1 h, 2 μM: 16.2
[2]; 10 μM, 37°C 1 h, n = 3
  Papp A→B at 1 h, 10 μM: 0.302 ± 0.0416 ×10⁻⁶ cm/s
  Papp B→A at 1 h, 10 μM: 3.7 ± 0.485 ×10⁻⁶ cm/s
[2]; 10 μM, read-out: ER
  efflux ratio at 1 h, 10 μM: 12.2
[2]; 50 μM, 37°C 1 h, n = 3
  Papp A→B at 1 h, 50 μM: 0.316 ± 0.0201 ×10⁻⁶ cm/s
  Papp B→A at 1 h, 50 μM: 3.16 ± 0.401 ×10⁻⁶ cm/s
[2]; 50 μM, read-out: ER
  efflux ratio at 1 h, 50 μM: 10
CYP2C9
  Deg-AZM remaining: 67.5%

From publication PMC11750672, “The in vivo metabolic pathway of Deg-AZM and in vitro investigations into the contribution of drug metabolizing enzymes and drug transporters in the drug interactions of Deg-AZM, a clinical-stage new transgelin agonist” (Frontiers in Pharmacology, 2025)
